Measured values reported in patent US20090093551A1, “REMOTELY TRIGGERED RELEASE FROM HEATABLE SURFACES” (priority 2006, published 2009).

How the values were obtained:
[1] = In vitro EM field-triggered release of fluorescent DNA from nanoparticles embedded in hydrogel (matrigel) plugs; details: hydrogel plug; for release on higher power EM field: higher power 3 kW
[2] = mouse, in vivo
Procedure: Phenol red free, growth factor reduced matrigel (400 μl, BD Biosciences) was added to 100 μl of particles. To obtain 1.05% total concentration of particles, 75 μl of DNA-conjugated particles (approximately 3.3 mg/ml) were added to 25 μl of similar 50 nm particles (200 mg/ml, Chemicell). Gels (total volume 500 μl) were mixed at 4° C. to prevent gelation.
Prior to injection of matrigel plugs into mice, approval from the Burnham Institute Animal Use Committee was obtained (AUF 05-054). In these experiments, 500 μl volumes were injected subcutaneous near the posterior mammary fat pad of six athymic nude mice and allowed to gel for 45 minutes. Prior to injection, animals were anesthetized with Avertin® (tribromoethanol) and remained under anesthesia during the remainder of the experiment. Three animals were treated with EM fields for two 5 minute doses, with 15 minutes between field applications (+EMF), while three were not treated (−EMF). […] To quantify penetration depth, 8 images of the tissue/phantom boundary were taken for each animal (3 animals per group, 24 images total). […] Using Metamorph software (Universal Imaging), green fluorescence on the tissue side of the boundary was quantified. For each fluorescent “object,” the area and distance from the tissue boundary was measured. An area-weighted average distance was calculated. […]

Substance | release on higher power EM field [1] | release on low power EM field pulses ([1]; low power EM field pulses 0.55 kW) | increase of the average distance of fluorescence signal, EM field treated over unexposed controls [2] | release of fluorescein into surrounding buffer on repeated EM field pulses ([1]; EM field pulses 400 kHz, 1.25 kW, 5 minutes every 40 minutes)
5′-CGCTGATTCAAGCCGACTAACCGC-3′ (DNA CGCTGATTCAAGCCGACTAACCGC; DNA, backbone and methylation of C not given here; fluorescent dye at 5' end, dye not named) [24 bp, HEX, 5′ HEX-labeled 24 bp complement DNA hybridized to 30 bp parent DNA on magnetite nanoparticles] | simultaneous release of both species |  |  | 
5′-TCG CTG ATT CAA-3′ (DNA TCGCTGATTCAA; DNA, backbone and methylation of C not given here; fluorescent dye at 5' end, dye not named) [12 bp, FAM, 5′ FAM-labeled 12 bp complement DNA hybridized to 30 bp parent DNA on magnetite nanoparticles] | simultaneous release of both species | triggered release predominantly of FAM |  | 
5′-TGA TTC AAG CCG ACT AAC-3′ (DNA TGATTCAAGCCGACTAAC; 5' fluorescein label, further chemistry not given here) [5′ fluorescein-labeled 18 bp complement DNA hybridized to 30 bp parent DNA on 50 nm dextran-coated magnetite nanoparticles; model drug] |  |  | approximately six-fold | corresponding release of fluorescein
